Laboratory results from patent US20220363689A1, “INHIBITOR OF BTK AND MUTANTS THEREOF” (Newave Pharmaceutical Inc., priority 2019, published 2022).

What was measured:
TEC = target: T1, TEC (Homo sapiens, UniProt P42680); assay: Caliper-based kinase assay, off-target TEC; type: biochemical; conditions: Cys-481 homologous kinase panel
T1 sequence (P42680 1-631): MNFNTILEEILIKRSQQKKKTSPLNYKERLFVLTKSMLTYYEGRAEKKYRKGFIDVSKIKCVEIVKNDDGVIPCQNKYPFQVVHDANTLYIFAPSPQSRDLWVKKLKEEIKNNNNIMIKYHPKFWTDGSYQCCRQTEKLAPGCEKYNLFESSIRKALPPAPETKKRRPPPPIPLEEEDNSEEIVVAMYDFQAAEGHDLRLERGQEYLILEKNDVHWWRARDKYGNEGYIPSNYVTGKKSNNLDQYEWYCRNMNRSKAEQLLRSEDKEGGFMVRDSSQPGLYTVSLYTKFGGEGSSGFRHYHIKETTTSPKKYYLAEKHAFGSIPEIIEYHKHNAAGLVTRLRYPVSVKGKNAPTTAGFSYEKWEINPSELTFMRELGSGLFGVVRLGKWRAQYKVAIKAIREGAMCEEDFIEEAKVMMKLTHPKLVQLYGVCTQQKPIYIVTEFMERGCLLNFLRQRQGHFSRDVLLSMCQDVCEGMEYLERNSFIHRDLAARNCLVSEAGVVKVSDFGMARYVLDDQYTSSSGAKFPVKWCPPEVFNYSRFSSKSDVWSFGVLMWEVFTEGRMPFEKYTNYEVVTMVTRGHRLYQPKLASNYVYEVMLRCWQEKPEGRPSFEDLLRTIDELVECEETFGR
Source text: (§1) A Caliper-based kinase assay (Caliper Life Sciences, Hopkinton, Mass.) was used to measure inhibition of kinase activity of compounds of the present disclosure. […]

human primary hepatocyte = assay: Human primary hepatocyte cytotoxicity (ATPlite); type: cell-based; conditions: about 72 hours incubation
Description: Cell viability assay is assayed by PerkinElmer ATPlite™ Luminescence Assay System. Briefly, the human primary hepatocyte are plated at a density of about 1×10^4 cells per well in Costar 96-well plates, and are incubated with different concentrations of compounds for about 72 hours in medium supplemented with 5% FBS. One lyophilized substrate solution vial is then reconstituted by adding 5 mL of substrate buffer solution, and is agitated gently until the solution is homogeneous. About 50 μL of mammalian cell lysis solution is added to 100 μL of cell suspension per well of a microplate, and the plate is shaken for about five minutes in an orbital shaker at −700 rpm. This procedure is used to lyse the cells and to stabilize the ATP. Next, 50 μL substrate solution is added to the wells and microplate is shaken for five minutes in an orbital shaker at −700 rpm. Finally, the luminescence is measured by a PerkinElmer TopCount® Microplate Scintillation Counter. Such assays, carried out with a range of doses of test compounds, allow the determination of the cellular anti-antiproliferative IC50 of the compounds of the present invention.

BMX = target: T2, BMX (Homo sapiens, UniProt P51813); assay: Caliper-based kinase assay, off-target BMX; type: biochemical; conditions: Cys-481 homologous kinase panel
T2 sequence (P51813 1-675): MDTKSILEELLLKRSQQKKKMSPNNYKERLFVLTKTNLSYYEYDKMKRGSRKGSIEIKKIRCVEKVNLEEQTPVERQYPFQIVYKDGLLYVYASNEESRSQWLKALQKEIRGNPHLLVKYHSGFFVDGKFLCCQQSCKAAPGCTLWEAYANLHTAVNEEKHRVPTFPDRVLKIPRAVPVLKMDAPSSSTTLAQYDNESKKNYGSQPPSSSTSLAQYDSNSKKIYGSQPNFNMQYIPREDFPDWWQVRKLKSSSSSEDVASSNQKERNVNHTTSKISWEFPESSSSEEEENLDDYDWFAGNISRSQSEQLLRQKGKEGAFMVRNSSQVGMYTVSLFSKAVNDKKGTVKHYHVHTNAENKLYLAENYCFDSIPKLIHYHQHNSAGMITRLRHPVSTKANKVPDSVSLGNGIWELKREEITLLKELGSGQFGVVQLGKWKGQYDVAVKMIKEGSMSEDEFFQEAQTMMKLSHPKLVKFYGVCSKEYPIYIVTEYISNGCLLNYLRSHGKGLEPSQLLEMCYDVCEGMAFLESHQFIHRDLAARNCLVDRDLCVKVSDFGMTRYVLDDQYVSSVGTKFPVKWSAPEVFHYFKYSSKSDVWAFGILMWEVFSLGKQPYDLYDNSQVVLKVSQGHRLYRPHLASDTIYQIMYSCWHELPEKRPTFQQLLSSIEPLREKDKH
Source text: as §1

BLK = BLK (Homo sapiens, UniProt P51451); assay: Caliper-based kinase assay, off-target BLK; type: biochemical; conditions: Cys-481 homologous kinase panel
Source text: as §1

TXK = target: T3, TXK (Homo sapiens, UniProt P42681); assay: Caliper-based kinase assay, off-target TXK; type: biochemical; conditions: Cys-481 homologous kinase panel
T3 sequence (P42681 1-527): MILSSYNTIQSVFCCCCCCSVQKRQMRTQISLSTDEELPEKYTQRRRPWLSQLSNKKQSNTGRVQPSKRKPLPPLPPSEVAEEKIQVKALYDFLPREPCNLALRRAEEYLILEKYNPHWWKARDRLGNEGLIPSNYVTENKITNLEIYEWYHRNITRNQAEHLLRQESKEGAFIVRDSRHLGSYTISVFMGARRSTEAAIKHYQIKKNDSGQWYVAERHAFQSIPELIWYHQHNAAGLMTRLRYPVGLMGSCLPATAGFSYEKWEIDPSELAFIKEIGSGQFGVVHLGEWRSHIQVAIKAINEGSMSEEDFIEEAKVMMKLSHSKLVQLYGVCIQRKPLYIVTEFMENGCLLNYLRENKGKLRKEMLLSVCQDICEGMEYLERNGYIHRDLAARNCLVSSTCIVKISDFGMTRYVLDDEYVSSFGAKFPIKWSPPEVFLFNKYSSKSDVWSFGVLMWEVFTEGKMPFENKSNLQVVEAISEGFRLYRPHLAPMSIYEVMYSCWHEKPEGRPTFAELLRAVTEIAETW
Source text: as §1

HER2 = HER2 (Homo sapiens, UniProt P04626); assay: Caliper-based kinase assay, off-target HER2; type: biochemical; conditions: Cys-481 homologous kinase panel
Source text: as §1

HER4 = HER4 (Homo sapiens, UniProt Q15303); assay: Caliper-based kinase assay, off-target HER4; type: biochemical; conditions: Cys-481 homologous kinase panel
Source text: as §1

EGFR = EGFR (Homo sapiens, UniProt P00533); assay: Caliper-based kinase assay, off-target EGFR; type: biochemical; conditions: Cys-481 homologous kinase panel
Source text: as §1

Chain of HER4 (Q15303 26-1308): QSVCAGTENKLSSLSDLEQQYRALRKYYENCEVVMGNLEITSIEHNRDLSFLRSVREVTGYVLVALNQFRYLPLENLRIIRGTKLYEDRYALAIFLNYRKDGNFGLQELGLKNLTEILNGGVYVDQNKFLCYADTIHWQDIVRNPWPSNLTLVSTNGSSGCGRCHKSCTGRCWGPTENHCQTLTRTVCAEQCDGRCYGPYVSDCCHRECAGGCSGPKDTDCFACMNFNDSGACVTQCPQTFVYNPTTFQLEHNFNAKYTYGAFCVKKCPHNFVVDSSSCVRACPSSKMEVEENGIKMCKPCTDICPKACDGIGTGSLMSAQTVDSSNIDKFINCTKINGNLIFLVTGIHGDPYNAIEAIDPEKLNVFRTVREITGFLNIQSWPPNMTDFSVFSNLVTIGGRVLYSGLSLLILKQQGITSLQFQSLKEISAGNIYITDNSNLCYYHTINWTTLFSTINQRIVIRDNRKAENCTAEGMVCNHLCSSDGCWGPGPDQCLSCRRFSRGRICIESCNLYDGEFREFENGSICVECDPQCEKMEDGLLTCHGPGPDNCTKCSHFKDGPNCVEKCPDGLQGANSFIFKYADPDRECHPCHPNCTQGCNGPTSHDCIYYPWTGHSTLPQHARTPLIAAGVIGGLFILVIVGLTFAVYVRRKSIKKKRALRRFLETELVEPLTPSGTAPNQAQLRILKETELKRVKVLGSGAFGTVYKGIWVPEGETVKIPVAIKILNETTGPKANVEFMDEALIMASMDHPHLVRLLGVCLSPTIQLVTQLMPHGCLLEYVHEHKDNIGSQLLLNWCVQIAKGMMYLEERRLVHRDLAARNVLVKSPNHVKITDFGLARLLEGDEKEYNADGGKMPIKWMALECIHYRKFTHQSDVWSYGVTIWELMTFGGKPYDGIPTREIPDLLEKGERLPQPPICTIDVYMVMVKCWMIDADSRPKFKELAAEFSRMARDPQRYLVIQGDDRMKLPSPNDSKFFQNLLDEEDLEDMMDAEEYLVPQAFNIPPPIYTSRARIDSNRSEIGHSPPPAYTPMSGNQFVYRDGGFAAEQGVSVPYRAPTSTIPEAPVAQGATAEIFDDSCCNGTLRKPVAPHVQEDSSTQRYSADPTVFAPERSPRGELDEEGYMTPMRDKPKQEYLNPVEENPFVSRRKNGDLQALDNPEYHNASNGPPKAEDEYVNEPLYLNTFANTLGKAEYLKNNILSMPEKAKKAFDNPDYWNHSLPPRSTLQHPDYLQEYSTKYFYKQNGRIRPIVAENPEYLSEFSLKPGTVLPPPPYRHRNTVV
Chain of BLK (P51451 whole entry): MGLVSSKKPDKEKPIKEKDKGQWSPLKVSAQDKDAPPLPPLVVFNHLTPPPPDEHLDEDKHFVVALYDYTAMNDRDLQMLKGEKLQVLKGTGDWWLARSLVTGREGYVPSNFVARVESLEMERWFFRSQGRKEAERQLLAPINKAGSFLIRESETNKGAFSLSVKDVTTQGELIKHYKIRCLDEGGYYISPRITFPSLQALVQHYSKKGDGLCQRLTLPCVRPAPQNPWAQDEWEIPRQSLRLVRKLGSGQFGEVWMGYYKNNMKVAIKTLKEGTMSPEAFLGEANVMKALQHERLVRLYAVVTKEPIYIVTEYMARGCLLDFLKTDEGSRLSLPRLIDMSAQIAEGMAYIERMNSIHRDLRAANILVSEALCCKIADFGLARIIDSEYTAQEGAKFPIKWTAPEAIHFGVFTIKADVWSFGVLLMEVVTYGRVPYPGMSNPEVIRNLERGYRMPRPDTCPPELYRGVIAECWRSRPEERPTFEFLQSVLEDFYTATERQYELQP
Chain of EGFR (P00533 25-1210): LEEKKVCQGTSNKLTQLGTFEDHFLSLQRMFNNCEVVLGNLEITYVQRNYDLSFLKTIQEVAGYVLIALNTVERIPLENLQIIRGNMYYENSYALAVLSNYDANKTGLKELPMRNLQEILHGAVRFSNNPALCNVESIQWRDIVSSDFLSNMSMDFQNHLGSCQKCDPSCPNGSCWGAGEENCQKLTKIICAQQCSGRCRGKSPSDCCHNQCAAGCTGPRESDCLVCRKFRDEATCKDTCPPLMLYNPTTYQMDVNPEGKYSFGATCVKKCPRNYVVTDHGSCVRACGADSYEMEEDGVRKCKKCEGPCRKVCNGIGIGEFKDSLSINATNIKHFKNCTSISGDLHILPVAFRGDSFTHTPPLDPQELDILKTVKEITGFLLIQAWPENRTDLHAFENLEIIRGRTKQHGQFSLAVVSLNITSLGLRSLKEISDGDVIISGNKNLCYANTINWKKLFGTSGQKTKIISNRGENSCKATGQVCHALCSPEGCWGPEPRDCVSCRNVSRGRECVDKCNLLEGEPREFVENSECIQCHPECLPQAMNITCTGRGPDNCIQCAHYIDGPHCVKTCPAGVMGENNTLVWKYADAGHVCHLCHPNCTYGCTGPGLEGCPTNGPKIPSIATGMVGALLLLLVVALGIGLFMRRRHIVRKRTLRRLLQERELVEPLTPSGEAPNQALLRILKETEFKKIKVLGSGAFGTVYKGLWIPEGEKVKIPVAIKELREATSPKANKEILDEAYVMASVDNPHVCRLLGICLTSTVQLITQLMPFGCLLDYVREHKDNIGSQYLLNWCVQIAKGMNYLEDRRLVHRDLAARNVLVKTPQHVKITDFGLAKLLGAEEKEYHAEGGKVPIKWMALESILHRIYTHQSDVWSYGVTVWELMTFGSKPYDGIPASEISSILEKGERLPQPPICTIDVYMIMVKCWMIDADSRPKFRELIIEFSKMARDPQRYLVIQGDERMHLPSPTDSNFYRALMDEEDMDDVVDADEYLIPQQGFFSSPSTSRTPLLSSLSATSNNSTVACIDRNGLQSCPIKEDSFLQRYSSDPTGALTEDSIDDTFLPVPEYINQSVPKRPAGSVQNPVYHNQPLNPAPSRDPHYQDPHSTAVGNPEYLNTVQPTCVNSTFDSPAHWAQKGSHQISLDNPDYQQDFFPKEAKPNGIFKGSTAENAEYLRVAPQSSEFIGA
Chain of HER2 (P04626 23-1255): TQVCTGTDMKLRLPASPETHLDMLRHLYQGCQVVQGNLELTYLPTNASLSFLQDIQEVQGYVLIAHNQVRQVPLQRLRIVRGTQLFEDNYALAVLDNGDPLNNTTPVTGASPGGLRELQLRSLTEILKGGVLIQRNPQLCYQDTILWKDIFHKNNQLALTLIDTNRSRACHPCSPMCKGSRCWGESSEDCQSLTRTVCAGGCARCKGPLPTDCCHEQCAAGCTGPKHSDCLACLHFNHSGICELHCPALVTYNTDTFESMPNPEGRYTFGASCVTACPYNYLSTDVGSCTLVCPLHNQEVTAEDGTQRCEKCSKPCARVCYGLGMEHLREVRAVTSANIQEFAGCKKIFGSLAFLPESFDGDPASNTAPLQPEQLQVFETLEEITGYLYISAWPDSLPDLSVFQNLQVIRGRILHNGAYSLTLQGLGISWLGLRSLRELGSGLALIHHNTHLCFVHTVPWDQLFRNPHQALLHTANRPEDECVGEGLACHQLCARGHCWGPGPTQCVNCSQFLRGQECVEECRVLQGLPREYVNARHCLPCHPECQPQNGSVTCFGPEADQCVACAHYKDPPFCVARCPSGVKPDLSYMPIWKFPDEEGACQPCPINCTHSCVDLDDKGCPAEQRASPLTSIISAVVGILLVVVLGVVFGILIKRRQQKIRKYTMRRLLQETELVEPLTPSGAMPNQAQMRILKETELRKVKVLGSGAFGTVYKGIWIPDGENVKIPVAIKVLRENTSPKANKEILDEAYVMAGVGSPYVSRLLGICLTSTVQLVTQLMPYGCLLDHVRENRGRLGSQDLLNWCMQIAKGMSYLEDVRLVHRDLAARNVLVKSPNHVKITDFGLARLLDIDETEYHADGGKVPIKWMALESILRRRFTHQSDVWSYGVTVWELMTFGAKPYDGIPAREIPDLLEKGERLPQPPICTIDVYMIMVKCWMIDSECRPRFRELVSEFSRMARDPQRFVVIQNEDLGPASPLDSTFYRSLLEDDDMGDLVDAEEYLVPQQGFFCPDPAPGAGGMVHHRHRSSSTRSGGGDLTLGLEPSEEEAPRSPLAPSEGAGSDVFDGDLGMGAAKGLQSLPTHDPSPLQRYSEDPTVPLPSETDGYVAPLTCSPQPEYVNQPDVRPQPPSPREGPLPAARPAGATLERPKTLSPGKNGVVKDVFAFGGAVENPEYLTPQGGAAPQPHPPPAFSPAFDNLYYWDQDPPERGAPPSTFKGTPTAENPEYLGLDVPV

SMILES	IC50 (TEC) [nM]	IC50 (human primary hepatocyte) [nM]	IC50 (BMX) [nM]	IC50 (BLK) [nM]	IC50 (TXK) [nM]	IC50 (HER2) [nM]	IC50 (HER4) [nM]	IC50 (EGFR) [nM]
C=CC(=O)Nc1cc(Nc2nc(-c3ccnc(N4CCn5c(cc6c5CC(C)(C)C6)C4=O)c3CO)cn(C)c2=O)ccc1N1CCN(C2CCOCC2)C[C@H]1C(F)(F)F [Example 48-S, N-(5-[[6-(2-[4,4-dimethyl-9-oxo-1,10-diazatricyclo[6.4.0.0^[2,6]]dodeca-2(6),7-dien-10-yl]-3-(hydroxymethyl)pyridin-4-yl)-4-methyl-3-oxopyrazin-2-yl]amino]-2-[(2S)-4-(oxan-4-yl)-2-(trifluoromethyl)piperazin-1-yl]phenyl)prop-2-enamide]	153	40900	155	> 1000	> 1000	> 1000	> 1000	> 1000
C=CC(=O)Nc1cc(Nc2nc(-c3ccnc(N4CCc5c(sc6c5CCCC6)C4=O)c3CO)cn(C)c2=O)ccc1N1CCN(C2CCOCC2)C[C@H]1C(F)(F)F [Example 55-S, N-[5-([6-[3-(hydroxymethyl)-2-[6-oxo-8-thia-5-azatricyclo[7.4.0.0^[2,7]]trideca-1(9), 2(7)-dien-5-yl]pyridin-4-yl]-4-methyl-3-oxopyrazin-2-yl]amino)-2-[(2S)-4-(oxan-4-yl)-2-(trifluoromethyl)piperazin-1-yl]phenyl]prop-2-enamide]	686	> 100000	183	> 1000	> 1000	> 1000	> 1000	> 1000
CC(C)(/C=C(\C#N)C(=O)N1CCC[C@@H](n2nc(-c3ccc(Oc4ccccc4)cc3F)c3c(N)ncnc32)C1)N1CCN(C2COC2)CC1 [PRN-1008, reference compound]	0.67	23500	0.36	3.1	0.48	> 1000	3.1	268
